Source: patent US20260327244A1, “PYRIDO[4,3-D]PYRIMIDINE COMPOUNDS” (Pfizer Inc., priority 2022, published 2026)

Tests used:
[1] = molecular target: T1, wild-type (WT) KRAS (aa1-185) (Homo sapiens, UniProt P01116); assay: KRAS Surface Plasma Resonance (SPR) binding assay, WT KRAS; details: SPR at 10 °C, geometric mean when tested more than once
T1 construct: wild-type (WT) KRAS (aa1-185)
Excerpt: (§1) No additional regeneration was used.
(§2) Compound dissociation was monitored for at least 3600 seconds. […] No additional regeneration was used.

WT NRAS (aa2-185) = molecular target: T2, WT NRAS (aa2-185) (Homo sapiens, UniProt P01111); assay: SPR binding assay, WT NRAS; details: SPR at 10 °C, geometric mean when tested more than once
T2 construct: WT NRAS (aa2-185)
T2 sequence (P01111 2-185): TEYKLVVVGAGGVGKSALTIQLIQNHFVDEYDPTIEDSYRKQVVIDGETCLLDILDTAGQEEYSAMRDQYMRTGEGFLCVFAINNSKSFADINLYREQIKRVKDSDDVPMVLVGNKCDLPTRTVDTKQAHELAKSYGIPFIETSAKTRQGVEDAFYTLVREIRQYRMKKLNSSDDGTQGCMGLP
Excerpt: as §1, §2

G12D KRAS (aa1-185) = G12D KRAS (aa1-185) (Homo sapiens, UniProt P01116, G12D); assay: biochemical;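 further: surface plasmon resonance at 10 °C, KRAS captured on a streptavidin chip in GDP-containing buffer, compound dilution series injected, blank streptavidin surface as reference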
Sequence of G12D KRAS (aa1-185) (P01116 1-185 isoform P01116-2 G12D): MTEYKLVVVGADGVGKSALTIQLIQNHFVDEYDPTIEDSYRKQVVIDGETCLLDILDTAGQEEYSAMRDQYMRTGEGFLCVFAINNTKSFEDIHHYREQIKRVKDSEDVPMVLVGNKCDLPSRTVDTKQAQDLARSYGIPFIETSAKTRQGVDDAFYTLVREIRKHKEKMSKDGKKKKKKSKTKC
Experimental: (§3) SPR assay was used to measure the kinetic binding constant (KD) of Examples of the present invention.
(§4) The binding affinity and kinetics of Examples of the present invention were measured by Surface Plasmon Resonance (SPR) using Biacore 8K or 8K+ (Cytiva, Marlborough, MA) instruments. Recombinant, C-terminal site-specific biotinylated, wild-type (WT) KRAS (aa1-185), G12D KRAS (aa1-185), G12C KRAS (aa2-184), G12V KRAS (aa2-184), WT HRAS (aa2-184) and WT NRAS (aa2-185) proteins purified in presence of 1 μM GDP were used in these experiments. Binding measurements were performed parallelly in sets of either WT/G12D/G12C/G12V KRAS or WT K/H/N RAS proteins.
(§5) Biacore instrument was desorbed and docked with a Series S Sensor Chip SA. The proteins were diluted to 50 μg/mL with the assay buffer (50 mM HEPES, 150 mM NaCl, 10 μM GDP, 5 mM MgCl2, 0.5 mM TCEP, 5% glycerol, 0.02% Tween-20, 2% DMSO, pH 7.2) and immobilized at a flow rate of 3 μL/min at 10° C. with a contact time of 15 min. to capture ~3000-4000 RUs of proteins on the surface. The functionalized surface was then equilibrated with assay buffer for approximately 1 hour. Un-functionalized SA surfaces with no immobilized protein served as reference for binding kinetic analysis. Compound binding kinetics were measured in either multi-cycle or single-cycle kinetic format.
(§6) A 2-fold, 10-point serial dilution of test compounds was set-up in a 96-well microplate (Greiner; Cat #650101) with a top concentration of either 10 μM or 100 μM. Binding kinetics was measured at 10° C. by injecting serial dilution of compounds onto both reference and RAS immobilized channels at a flow rate of 100 μL/min and association time of 90 seconds. Compound dissociation was monitored for at least 400 seconds during each cycle. No additional regeneration was used. DMSO calibration curve was obtained before and after compound analysis by injecting 0-4% of DMSO in assay buffer. A suitable compound with known affinity and kinetics was tested once in every experiment as a positive control to assess activity of the captured protein on the surface.
(§7) A 3-fold, 6-point serial dilution of compounds was set-up in a deep 96-well microplate (Greiner Bio; Cat #780201) with the highest concentration of 1 μM (concentration range: 0.004-1 μM). Binding kinetics was measured at 10° C. by injecting serial dilutions of compounds in increasing order onto reference as well as RAS immobilized channels at a flow rate of 100 μL/min and association time of 120 seconds. Compound dissociation was monitored for at least 3600 seconds. Two buffer blanks were also run in a single-cycle kinetics format before the compound run for double referencing. No additional regeneration was used. DMSO calibration curve was obtained before and after compound analysis by injecting 0-4% of DMSO in the assay buffer. A suitable compound with known affinity and kinetics was tested once in every experiment as a positive control to assess activity of the captured protein on the surface.
(§8) Both MCK and SCK data were processed and analyzed using Biacore Insight evaluation software (Cytiva, Marlborough, MA)). […] The adequateness of the fit was judged by c^2 values and the randomness of residue distribution.
(§9) A geometric mean of binding constant KD was provided when an Example was tested more than once (n is testing replicate number).

G12V KRAS (aa2-184) = G12V KRAS (aa2-184) (Homo sapiens, UniProt P01116, G12V); assay: biochemical
Sequence of G12V KRAS (aa2-184) (P01116 2-184 isoform P01116-2 G12V): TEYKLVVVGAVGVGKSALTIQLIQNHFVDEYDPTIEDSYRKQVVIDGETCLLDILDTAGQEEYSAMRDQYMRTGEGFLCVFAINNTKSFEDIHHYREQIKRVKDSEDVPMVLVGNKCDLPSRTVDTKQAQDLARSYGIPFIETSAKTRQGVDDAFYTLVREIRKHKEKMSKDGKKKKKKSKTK
Experimental: as §3, §4, §5, §6, §7, §8, §9

WT HRAS (aa2-184) = molecular target: T3, WT HRAS (aa2-184) (Homo sapiens, UniProt P01112); assay: SPR binding assay, WT HRAS; details: SPR at 10 °C, geometric mean when tested more than once
T3 construct: WT HRAS (aa2-184)
T3 sequence (P01112 2-184): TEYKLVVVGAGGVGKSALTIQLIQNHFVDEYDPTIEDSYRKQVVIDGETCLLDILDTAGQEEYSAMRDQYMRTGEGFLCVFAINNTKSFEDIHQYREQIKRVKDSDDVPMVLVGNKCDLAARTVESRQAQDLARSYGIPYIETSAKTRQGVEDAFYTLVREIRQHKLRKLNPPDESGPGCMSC
Excerpt: as §1, §2

G12C KRAS (aa2-184) = G12C KRAS (aa2-184) (Homo sapiens, UniProt P01116, G12C); assay: biochemical
Sequence of G12C KRAS (aa2-184) (P01116 2-184 isoform P01116-2 G12C): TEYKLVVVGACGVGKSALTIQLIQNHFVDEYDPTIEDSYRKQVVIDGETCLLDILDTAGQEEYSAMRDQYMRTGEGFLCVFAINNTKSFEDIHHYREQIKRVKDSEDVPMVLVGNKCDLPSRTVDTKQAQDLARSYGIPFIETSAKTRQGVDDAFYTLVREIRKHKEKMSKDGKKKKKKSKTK
Experimental: as §3, §4, §5, §6, §7, §8, §9

[2] = Mouse PK study, unbound plasma exposure of Example 33 after oral dosing of female NSG mice; format: in vivo
Experimental: FIG. 1 provides mouse PK study results showing unbound plasma concentrations of Example 33 in female NSG mouse plasma after oral dosing of female NSG Mice at 100 mg/kg (n=3, mean+/−SD). The solution of Example 33 was prepared using a Pluronic-based formulation [2.5% (w/v) Pluronic F-68 (Poloxamer 188)], and the suspension arms of both Example 33 and Example 34 were prepared using a 0.5% (w/v) methylcellulose formulation.
The solution formulation of Example 33 was an aqueous solution with 2.5% (w/v) Pluronic F-68 (Poloxamer 188). The amorphous suspension formulations of Example 33 and Example 34 were made using in 0.5% (w/v) methylcellulose in water.

T1 sequence (P01116 1-185 isoform P01116-2): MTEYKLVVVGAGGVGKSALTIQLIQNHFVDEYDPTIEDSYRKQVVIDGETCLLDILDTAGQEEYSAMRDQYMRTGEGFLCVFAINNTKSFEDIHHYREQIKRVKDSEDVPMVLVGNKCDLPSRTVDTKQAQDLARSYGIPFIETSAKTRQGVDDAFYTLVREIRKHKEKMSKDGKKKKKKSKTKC

Row | Kd [1] | Kd (WT NRAS (aa2-185)) | Kd (G12D KRAS (aa1-185)) | Kd (G12V KRAS (aa2-184)) | Kd (WT HRAS (aa2-184)) | Kd (G12C KRAS (aa2-184)) | Cav Fold Increase ([2]; suspension, relative to Example 33 suspension, 100 mg (active)/kg oral) | Cav, ss, u ([2]; unbound Example 33 in plasma, suspension (0.5% methylcellulose), single oral dose 100 mg (active)/kg) | SMILES
1 | 4.79 nM | > 10000 nM | 12.3 nM | 10.8 nM | > 10000 nM | 11 nM | – | – | C#Cc1cccc2cc(O)cc(-c3ncc4c(N5CC[C@H](CC#N)C5)nc(OC[C@@]56CCCN5C[C@H](F)C6)nc4c3F)c12 [Example 3, {(3R)-1-[7-(8-ethynyl-3-hydroxynaphthalen-1-yl)-8-fluoro-2-{[(2R,7aS)-2-fluorotetrahydro-1H-pyrrolizin-7a(5H)-yl]methoxy}pyrido[4,3-d]pyrimidin-4-yl]pyrrolidin-3-yl}acetonitrile]
2 | 0.03 nM | 346 nM | 0.297 nM | 4.86 nM | 71.5 nM | 0.681 nM | – | – | C#Cc1c(F)ccc2cc(O)cc(-c3ncc4c(N5C[C@@H]6C[C@H](C5)[C@H](O)C6)nc(OC[C@@]56CCCN5C[C@H](F)C6)nc4c3F)c12 [Example 10, (1R,5R,6R)-3-[7-(8-ethynyl-7-fluoro-3-hydroxynaphthalen-1-yl)-8-fluoro-2-{[(2R,7aS)-2-fluorotetrahydro-1H-pyrrolizin-7a(5H)-yl]methoxy}pyrido[4,3-d]pyrimidin-4-yl]-3-azabicyclo[3.2.1]octan-6-ol]
3 | 0.022 nM | 1000 nM | 0.045 nM | 0.117 nM | 606 nM | 1.13 nM | – | – | N#CC[C@@H]1CCCN(c2nc(OC[C@@]34CCCN3C[C@H](F)C4)nc3c(F)c(-c4cc(O)cc5ccc(F)c(F)c45)ncc23)C1 [Example 12, {(3S)-1-[7-(7,8-difluoro-3-hydroxynaphthalen-1-yl)-8-fluoro-2-{[(2R,7aS)-2-fluorotetrahydro-1H-pyrrolizin-7a(5H)-yl]methoxy}pyrido[4,3-d]pyrimidin-4-yl]piperidin-3-yl}acetonitrile]
4 | 1.25 nM | > 10000 nM | 59.8 nM | 10.4 nM | 8920 nM | 7.56 nM | – | – | CC(=O)N1CCN(c2nc(OC[C@@]34CCCN3C[C@H](F)C4)nc3c(F)c(-c4cc(O)cc5ccc(F)c(F)c45)ncc23)C[C@@H]1CC#N [Example 13, {(2S)-1-acetyl-4-[7-(7,8-difluoro-3-hydroxynaphthalen-1-yl)-8-fluoro-2-{[(2R,7aS)-2-fluorotetrahydro-1H-pyrrolizin-7a(5H)-yl]methoxy}pyrido[4,3-d]pyrimidin-4-yl]piperazin-2-yl}acetonitrile]
5 | 0.006 nM | 656 nM | 0.092 nM | 0.461 nM | 198 nM | 0.263 nM | – | – | Oc1cc(-c2ncc3c(N4C[C@@H]5C[C@H](C4)[C@H](O)C5)nc(OC[C@@]45CCCN4C[C@H](F)C5)nc3c2F)c2c(F)c(F)ccc2c1 [Example 14, (1R,5R,6R)-3-[7-(7,8-difluoro-3-hydroxynaphthalen-1-yl)-8-fluoro-2-{[(2R,7aS)-2-fluorotetrahydro-1H-pyrrolizin-7a(5H)-yl]methoxy}pyrido[4,3-d]pyrimidin-4-yl]-3-azabicyclo[3.2.1]octan-6-ol]
6 | 0.118 nM | – | 0.128 nM | 0.274 nM | – | 0.749 nM | – | – | C#Cc1c(F)ccc2cc(O)cc(-c3ncc4c(N5CCC[C@@H](CC#N)C5)nc(OC[C@@]56CCCN5C[C@H](F)C6)nc4c3F)c12 [Example 15, {(3S)-1-[7-(8-ethynyl-7-fluoro-3-hydroxynaphthalen-1-yl)-8-fluoro-2-{[(2R,7aS)-2-fluorotetrahydro-1H-pyrrolizin-7a(5H)-yl]methoxy}pyrido[4,3-d]pyrimidin-4-yl]piperidin-3-yl}acetonitrile]
7 | 0.362 nM | – | 0.553 nM | 0.269 nM | – | 0.963 nM | – | – | Oc1cc(-c2ncc3c(N4C[C@@H]5C[C@H](C4)[C@H](O)C5)nc(OC[C@@]45CCCN4C[C@H](F)C5)nc3c2F)c2ccccc2c1 [Example 17, (1R,5R,6R)-3-[8-fluoro-2-{[(2R,7aS)-2-fluorotetrahydro-1H-pyrrolizin-7a(5H)-yl]methoxy}-7-(3-hydroxynaphthalen-1-yl)pyrido[4,3-d]pyrimidin-4-yl]-3-azabicyclo[3.2.1]octan-6-ol]
8 | – | – | – | – | 473 nM | – | – | – | C#Cc1c(F)ccc2cc(O)cc(-c3nc4c5c(nc(OC[C@@]67CCCN6C[C@H](F)C7)nc5c3F)N3CCCC[C@H]3CO4)c12 [Example 23, 5-ethynyl-6-fluoro-4-[(8aS)-4-fluoro-2-{[(2R,7aS)-2-fluorotetrahydro-1H-pyrrolizin-7a(5H)-yl]methoxy}-8,8a,9,10,11,12-hexahydro-7-oxa-1,3,6,12a-tetraazabenzo[4,5]cyclohepta[1,2,3-de]naphthalen-5-yl]naphthalen-2-ol]
9 | 0.145 nM | – | 0.081 nM | 0.052 nM | – | 0.079 nM | – | – | C#Cc1c(F)ccc2cc(O)cc(-c3nc4c5c(nc(OC[C@@]67CCCN6C[C@H](F)C7)nc5c3F)N(C)CCO4)c12 [Example 24, 5-ethynyl-6-fluoro-4-(4-fluoro-2-{[(2R,7aS)-2-fluorotetrahydro-1H-pyrrolizin-7a(5H)-yl]methoxy}-10-methyl-9,10-dihydro-8H-7-oxa-1,3,6,10-tetraazacyclohepta[1,2,3-de]naphthalen-5-yl)naphthalen-2-ol]
10 | 0.014 nM | – | 0.046 nM | 0.117 nM | – | 0.031 nM | – | – | C#Cc1c(F)ccc2cc(O)cc(-c3nc4c5c(nc(OC[C@@]67CCCN6C[C@H](F)C7)nc5c3F)N(CCO)CCO4)c12 [Example 26, 5-ethynyl-6-fluoro-4-[4-fluoro-2-{[(2R,7aS)-2-fluorotetrahydro-1H-pyrrolizin-7a(5H)-yl]methoxy}-10-(2-hydroxyethyl)-9,10-dihydro-8H-7-oxa-1,3,6,10-tetraazacyclohepta[1,2,3-de]naphthalen-5-yl]naphthalen-2-ol]
11 | 0.061 nM | – | 0.03 nM | 0.028 nM | – | 0.064 nM | – | – | C#Cc1c(F)ccc2cc(O)cc(-c3nc4c5c(nc(OC[C@@]67CCCN6C[C@H](F)C7)nc5c3F)N3CCC[C@@H](O)[C@H]3CO4)c12 [Example 28, (8aR,9R)-5-(8-ethynyl-7-fluoro-3-hydroxynaphthalen-1-yl)-4-fluoro-2-{[(2R,7aS)-2-fluorotetrahydro-1H-pyrrolizin-7a(5H)-yl]methoxy}-8,8a,9,10,11,12-hexahydro-7-oxa-1,3,6,12a-tetraazabenzo[4,5]cyclohepta[1,2,3-de]naphthalen-9-ol]
12 | 5.75 nM | – | 1.55 nM | 1.48 nM | – | 3.65 nM | – | – | C#Cc1c(F)ccc2cccc(-c3nc4c5c(nc(OC[C@@]67CCCN6C[C@H](F)C7)nc5c3F)N3CCCC[C@H]3CO4)c12 [Example 29, (8aS)-5-(8-ethynyl-7-fluoronaphthalen-1-yl)-4-fluoro-2-{[(2R,7aS)-2-fluorotetrahydro-1H-pyrrolizin-7a(5H)-yl]methoxy}-8,8a,9,10,11,12-hexahydro-7-oxa-1,3,6,12a-tetraazabenzo[4,5]cyclohepta[1,2,3-de]naphthalene]
13 | 2.58 nM | – | 0.25 nM | 0.24 nM | – | 1.1 nM | – | – | C#Cc1c(F)ccc2cccc(-c3nc4c5c(nc(OC[C@@]67CCCN6C[C@H](F)C7)nc5c3F)N3C[C@@H](O)CC[C@H]3CO4)c12 [Example 30, (8aS,11S)-5-(8-ethynyl-7-fluoronaphthalen-1-yl)-4-fluoro-2-{[(2R,7aS)-2-fluorotetrahydro-1H-pyrrolizin-7a(5H)-yl]methoxy}-8,8a,9,10,11,12-hexahydro-7-oxa-1,3,6,12a-tetraazabenzo[4,5]cyclohepta[1,2,3-de]naphthalen-11-ol]
14 | 0.009 nM | – | 0.004 nM | 0.004 nM | – | 0.004 nM | – | – | C#Cc1c(F)c(F)cc2cc(O)cc(-c3nc4c5c(nc(OC[C@@]67CCCN6C[C@H](F)C7)nc5c3F)N3CCCC[C@H]3CO4)c12 [Example 32, 5-ethynyl-6,7-difluoro-4-[(8aS)-4-fluoro-2-{[(2R,7aS)-2-fluorotetrahydro-1H-pyrrolizin-7a(5H)-yl]methoxy}-8,8a,9,10,11,12-hexahydro-7-oxa-1,3,6,12a-tetraazabenzo[4,5]cyclohepta[1,2,3-de]naphthalen-5-yl]naphthalen-2-ol]
15 | – | – | – | – | – | – | 10.4 | 3.84 nM | C#Cc1c(F)ccc2cc(OCOP(=O)(O)O)cc(-c3nc4c5c(nc(OC[C@@]67CCCN6C[C@H](F)C7)nc5c3F)N3CCCOC[C@H]3CO4)c12 [Example 34, ({5-ethynyl-6-fluoro-4-[(8aS)-4-fluoro-2-{[(2R,7aS)-2-fluorotetrahydro-1H-pyrrolizin-7a(5H)-yl]methoxy}-8a,9,12,13-tetrahydro-8H,11H-7,10-dioxa-1,3,6,13a-tetraazanaphtho[1,8-ab]heptalen-5-yl]naphthalen-2-yl}oxy)methyl dihydrogen phosphate]
